Measured values from patent US7778782B1, “Peroxisome proliferation activated receptor alpha (PPARα) signatures” (priority 2002, dated 2010).
Marks after values point to notes of the source that are not given here.

Test system: PPARα response signature
Test: Signature Projection Score (SPS) of liver gene expression against the PPARα response signature
Assay type: in vivo, male Sprague-Dawley rats
Protocol: Compound dosing was based on the acute dose LD50s recorded in published reference or literature sources. Duplicate rats were dosed at each of 3 doses: at LD50, one-half and one-fourth of LD50. The MTD (maximum tolerated dose) was then selected as the dose at which the animals […] 5-10% body weight during the 5-day range finding study. […] In addition, the clinical observations must show no or mild clinical signs during the whole of the range-finding study. At the next highest dose, signs and symptoms of adverse effects and exceeding those of the MTD should be seen to occur. Should these criteria not be met, the range-finding study is repeated using a modified dose range.
After determination of the MTD and FED for a compound, each compound was dissolved in a vehicle for administration on day 1 of the study (additional daily doses were stored as frozen aliquots from this initial formulation). Each compound was administered to three individual male Sprague-Dawley rats for each of the two doses (MTD and FED) for one of four different times (0.25 day, 1 day, 3 days, and 5 or 7 days), yielding a total of up to 24 animals per compound study. Vehicle choice was based on solubility of the compound, effect of food on adsorption, and the vehicles used in the literature reports examined during the FED selection investigations, described above. Generally, the route and vehicle in which the FED was defined are used. When there was a choice of routes and vehicles, oral routes were chosen over injection routes. Many compounds, especially oncolytics, are only administerable intravenously. In such cases, the compound was administered as an intravenous formulation into the tail vein. Orally administered compounds were given dissolved in either water, 1% carboxymethycellulose (CMC) or corn oil. Intravenously and intraperitoneally administered compounds were given in 0.9% saline. Subcutaneously administered compounds were given in corn oil. Animal body weights were determined at 1 day and, where appropriate, at 4 days, before necropsy, and clinical observations were made on a daily basis. Control animals were dosed with vehicle only. Three male animals were used for each dose and time combination used for the compound treatment.
Tissue harvest and handling: After the allocated treatment time, the tissues from the animals were harvested. […] All the tissues collected were divided to provide samples for histopathological analyses, and the remainder of each tissue was then snap-frozen. […] The parameters were measured using a Hitachi-911 clinical chemistry analysis instrument according to the manufacturer's instructions. The following blood constituents were measured: Blood Urea Nitrogen (BUN), Creatinine (CRE), Glucose (GLU), Alanine Transaminase (ALT), Aspartate Aminotransferase (AST), Alkaline Phosphatase (ALP), Total Bilirubin (TBI), Sodium (SOD), Potassium (POT), Chloride (CHL), Phosphorus (PHO), Total Protein (TPR), Albumin (ALB), Cholesterol (CHO), Creatine Phosphokinase (CPK), Lactate Dehydrogenase (LDH), Carbon Dioxide (CO2), Uric Acid (UA), and Lipase. […] The parameters were measured using a Baker 9000 blood cell analysis instrument according to the manufactures instructions. The following blood constituents were measured: Leukocyte count (WBC), Differential Leukocyte counts, Erythrocyte count (RBC), Hemoglobin concentration (HGB), Hematocrit (HCT), Mean Corpuscular Volume (MCV), Mean Corpuscular Hemoglobin (MCH), Mean Corpuscular Hemoglobin Concentration (MCC), Thrombocyte Count (PLC). Histopathology: Histopathological analyses of hematoxylin and eosin-stained tissue sections were performed and peer-reviewed by board-certified (Diplomate, American College of Veterinary Pathologists) veterinary pathologists.

[1] = rat liver expression data in DrugMatrix database compared with PPARα response signature, normalised so highest training treatment = 100, *= p < 0.01, **= p < 0.001
[2] = rat liver gene expression, in words

Compound | SPS (Sequence Projection Score) [1] | further results
CC(=O)[C@H]1CC[C@H]2[C@@H]3CCC4=CC(=O)CC[C@]4(C)[C@H]3CC[C@]12C [PROGESTERONE] | 5 | 
Cn1cnc([N+](=O)[O-])c1Sc1ncnc2nc[nH]c12 [AZATHIOPRINE] | 7 | 
CC(C)n1c(/C=C/C(O)CC(O)CC(=O)O)c(-c2ccc(F)cc2)c2ccccc21 (centres unmarked) [FLUVASTATIN] |  | SPS (Signature Projection Score) (rat, in vivo): 35*
Cc1oncc1C(=O)Nc1ccc(C(F)(F)F)cc1 [LEFLUNOMIDE] | 5 | 
c1ccc2c(c1)Nc1ccccc1S2 [PHENOTHIAZINE] | 23* | 
CC(C)(Oc1ccc(CCNC(=O)c2ccc(Cl)cc2)cc1)C(=O)O [BEZAFIBRATE, 2-(4-(2-((4-chlorobenzoyl)amino)ethyl)phenoxy)-2-methylpropanoic acid] |  | SPS (Signature Projection Score) [1]: 102**
O=C(O)CCCc1ccc(N(CCCl)CCCl)cc1 [CHLORAMBUCIL] |  | SPS (Signature Projection Score) [1]: 8
CCCCC(CC)COC(=O)c1ccccc1C(=O)OCC(CC)CCCC (centres unmarked) [BIS-2-ETHYLHEXYL PHTHALATE] | 68** | similarity to the PPARα response signature [2]: significantly similar to the signature
C#C[C@]1(O)CC[C@H]2[C@@H]3CCc4cc(O)ccc4[C@H]3CC[C@@]21C [ETHINYLESTRADIOL] | 19 | 
CC1=C(CC(=O)O)c2cc(F)ccc2/C1=C\c1ccc([S+](C)[O-])cc1 (centres unmarked) | 4 | 
Cc1ccc(C)c(OCCCC(C)(C)C(=O)O)c1 [GEMFIBROZIL, 5-(2,5-dimethylphenoxy)-2,2-dimethylpentanoic acid] | 65* | 
C[C@]12CCC(=O)C=C1CC[C@@H]1[C@@H]2CC[C@@]2(C)[C@H]1CC[C@]2(C)O [17-METHYLTESTOSTERONE] | 5 | 
O=P1(NCCCl)OCCCN1CCCl (centres unmarked) [IFOSFAMIDE] | 9 | 
OC(Cn1cncn1)(Cn1cncn1)c1ccc(F)cc1F [FLUCONAZOLE] | 4 | 
CN(C)C=O [N,N-DIMETHYLFORMAMIDE] | 5 | 
CC(=O)O[C@]1(C(C)=O)CC[C@H]2[C@@H]3C=C(Cl)C4=CC(=O)[C@@H]5C[C@@H]5[C@]4(C)[C@H]3CC[C@@]21C [CYPROTERONE ACETATE] | 5 | 
Clc1ccccc1C(c1ccccc1)(c1ccccc1)n1ccnc1 [CLOTRIMAZOLE] | 4 | 
CC(=O)N1CCN(c2ccc(OCC3COC(Cn4ccnc4)(c4ccc(Cl)cc4Cl)O3)cc2)CC1 (centres unmarked) [KETOCONAZOLE] | 6 | 
Oc1c(Cl)cc(Cl)cc1Sc1cc(Cl)cc(Cl)c1O [BITHIONOL] | 20 | 
C[C@]12CC[C@@H]3c4ccc(O)cc4CC[C@H]3[C@@H]1CC[C@@H]2O [BETA-ESTRADIOL] | 11 | 
C[C@@H]1C[C@H]2[C@@H]3CCC4=CC(=O)C=C[C@]4(C)[C@@]3(F)[C@@H](O)C[C@]2(C)[C@@]1(O)C(=O)CO [DEXAMETHASONE] | 9 | 
C#C[C@]1(OC(C)=O)CC[C@H]2[C@@H]3CCC4=CC(=O)CC[C@@H]4[C@H]3CC[C@@]21C [NORETHINDRONE ACETATE] | 5 | 
CC#C[C@]1(O)CC[C@H]2[C@@H]3CCC4=CC(=O)CCC4=C3[C@@H](c3ccc(N(C)C)cc3)C[C@@]21C [MIFEPRISTONE] | 7 | 
O=C(c1ccc(OCCN2CCCCC2)cc1)c1c(-c2ccc(O)cc2)sc2cc(O)ccc12 [RALOXIFENE] | 44* | 
COCc1c(C(C)C)nc(C(C)C)c(/C=C/[C@@H](O)C[C@@H](O)CC(=O)O)c1-c1ccc(F)cc1 [CERIVASTATIN] | 15 | 
CCOC(=O)C(C)(C)Oc1ccc(Cl)cc1 [CLOFIBRATE, 2-(p-chlorophenoxy)-2-methylpropionic acid ethyl ester] | 99** | 
CC[C@H](C)C(=O)O[C@H]1C[C@@H](C)C=C2C=C[C@H](C)[C@H](CC[C@@H]3C[C@@H](O)CC(=O)O3)[C@H]21 [LOVASTATIN] |  | SPS (Signature Projection Score) (rat, in vivo): 45*; similarity to the PPARα response signature (rat, in vivo): significantly similar to the signature
N.N.[Cl][Pt][Cl] [CISPLATIN] | 9 | 
CC(C)c1c(C(=O)Nc2ccccc2)c(-c2ccccc2)c(-c2ccc(F)cc2)n1CC[C@@H](O)C[C@@H](O)CC(=O)O [ATORVASTATIN] | 22* | similarity to the PPARα response signature [2]: significantly similar to the signature
